Assay results from patent publication US8951992B2, “Mycobacterium membrane protease as a target for inhibitors of intrabacterial pH homeostasis” (Cornell University, priority 2008, dated 2015).

Experiments:
Format in all cases: cell-based, Mycobacterium tuberculosis
[1] = test system: Wild-type H37Rv transformed with pH-GFP; details: pH 4.5
[2] = test system: Rv3671c mutant in IFN-γ-activated macrophages
[3] = test system: Rv3671c mutant in IFN-γ-activated macrophages; remark: listed apart in the source
Rv3671c mutant [4] = test system: Rv3671c mutant
Rv3671c mutant [5] = test system: Rv3671c mutant; remark: listed apart in the source
Rv3671c mutant [6] = test system: Rv3671c mutant; remark: listed apart in the source
lysX mutant = test system: lysX mutant
Rv3671c mutant [7] = test system: Rv3671c mutant; remark: listed apart in the source

## CC[C@@H](CO)NCCN[C@@H](CC)CO [Ethambutol]
[1]
  concentrations causing a substantial decline in pHIB: ≥ 8 μg/ml

## Cl.N [NH4Cl]
[2]
  effect on pHIB of the Rv3671c mutant: protected
[3]
  effect on survival of the Rv3671c mutant: restored

## CCCCCCCCCCCCOS(=O)(=O)[O-].[Na+] [SDS]
Rv3671c mutant [4]
  sensitivity of the Rv3671c mutant to SDS: hypersensitive

## N#CC(C#N)=NNc1cccc(Cl)c1 [carbonyl cyanide m-chlorophenylhydrazone]
Rv3671c mutant [5]
  effect on the Rv3671c mutant's survival: further attenuated
Rv3671c mutant [6]
  effect on the Rv3671c mutant's pHIB: further reduced

## CC[C@H]1OC(=O)[C@H](C)[C@@H](O[C@H]2C[C@@](C)(OC)[C@@H](O)[C@H](C)O2)[C@H](C)[C@@H](O[C@@H]2O[C@H](C)C[C@H](N(C)C)[C@H]2O)[C@](C)(O)C[C@@H](C)C(=O)[C@H](C)[C@@H](O)[C@]1(C)O [erythromycin]
lysX mutant
  sensitivity of the lysX mutant to the antibiotic: hypersensitive
Rv3671c mutant [7]
  sensitivity of the Rv3671c mutant to the antibiotic: hypersensitive

## NNC(=O)c1ccncc1 [isoniazid]
[1]
  effect on Mtb's pHIB: did not significantly alter pHIB

## CC[C@@]1([C@@H]2O[C@@H]([C@H]3O[C@@](O)(CO)[C@H](C)C[C@@H]3C)C[C@@H]2C)CC[C@H]([C@]2(C)CC[C@]3(C[C@H](O)[C@@H](C)[C@@H]([C@@H](C)[C@@H](OC)[C@H](C)C(=O)O)O3)O2)O1 [monensin]
[1]
  effect on Mtb's pHIB: concentration dependent decline in pHIB
Rv3671c mutant [5]
  effect on the Rv3671c mutant's survival: further attenuated
Rv3671c mutant [6]
  effect on the Rv3671c mutant's pHIB: further reduced

## NC(=O)c1cnccn1 [pyrazinmide]
[1]
  effect on Mtb's pHIB: did not significantly alter pHIB

## CO[C@H]1/C=C/O[C@@]2(C)Oc3c(C)c(O)c4c(O)c(c(/C=N/N5CCN(C)CC5)c(O)c4c3C2=O)NC(=O)/C(C)=C\C=C\[C@H](C)[C@H](O)[C@@H](C)[C@@H](O)[C@@H](C)[C@H](OC(C)=O)[C@@H]1C [rifampin]
lysX mutant
  sensitivity of the lysX mutant to the antibiotic: hypersensitive
Rv3671c mutant [7]
  sensitivity of the Rv3671c mutant to the antibiotic: hypersensitive
[1]
  effect on Mtb's pHIB: did not significantly alter pHIB

## [H]/N=C(/N)N[C@H]1[C@H](O)[C@@H](O)[C@H](O[C@@H]2O[C@@H](C)[C@](O)(C=O)[C@H]2O[C@@H]2O[C@@H](CO)[C@H](O)[C@@H](O)[C@@H]2NC)[C@@H](N/C(N)=N\[H])[C@@H]1O [streptomycin]
[1]
  effect on Mtb's pHIB: did not significantly alter pHIB
